# Reference: ChEMBL document CHEMBL5678816, “A Next-Generation TRK Kinase Inhibitor Overcomes Acquired Resistance to Prior TRK Kinase Inhibition in Patients with TRK Fusion-Positive Solid Tumors” (Cancer Discov, 2017)
# Calls of active or inactive are those of the source. The calls are words filed in the database; no cut-off is given here.
# Experiments:
# Rec1 = assay: Inhibition of cell proliferation in human REC1 cells upto 10 umol/L incubated for 72 hrs by DAPI staining based analysis; type: functional; conditions: dose <= 10.0 µmol/L
# Homo sapiens = organism: Homo sapiens; assay: Inhibition of p70S6K (unknown origin) at 1 uM in presence of ATP relative to control; values are per cent of control
# [1] = biological target: Tyrosine-protein kinase ITK/TSK (Homo sapiens) (UniProt Q08881); assay: Inhibition of ITK (unknown origin) at 1 uM in presence of ATP relative to control; values are per cent of control
# [2] = biological target: CDK7/Cyclin H/MNAT1 (Homo sapiens) (UniProt P51946+P50613+P51948); assay: Inhibition of CDK7/cyclinH/MAT1 (unknown origin) at 1 uM in presence of ATP relative to control; values are per cent of control
# [3] = Toxicity in nu/nu NCr mouse implanted with mouse NIH3T3 cells harboring extracellular domain deleted TRKA assessed as body weight loss at 30 to 300 mg/kg, po administered twice daily for 10 days relative to control; type: organism-based; conditions: in vivo, 240 h, dose 30-300 mg/kg, time 10 day
# [4] = biological target: MAP kinase-activated protein kinase 3 (Homo sapiens) (UniProt Q16644); assay: Inhibition of MAPKAP-K3 (unknown origin) at 1 uM in presence of ATP relative to control; values are per cent of control
# MAP kinase-activated protein kinase 3 (Homo sapiens), sequence (Q16644 whole entry, looked up): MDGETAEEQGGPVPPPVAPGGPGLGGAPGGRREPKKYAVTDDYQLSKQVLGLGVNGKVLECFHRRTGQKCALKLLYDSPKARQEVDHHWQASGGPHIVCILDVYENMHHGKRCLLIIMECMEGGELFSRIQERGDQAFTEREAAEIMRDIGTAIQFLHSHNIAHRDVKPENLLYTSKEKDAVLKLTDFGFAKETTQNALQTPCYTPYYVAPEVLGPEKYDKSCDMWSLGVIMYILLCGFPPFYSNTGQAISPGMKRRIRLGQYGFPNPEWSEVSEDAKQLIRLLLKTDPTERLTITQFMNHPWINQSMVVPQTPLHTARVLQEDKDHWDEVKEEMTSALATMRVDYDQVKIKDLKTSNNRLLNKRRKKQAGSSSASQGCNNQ
# [5] = biological target: Insulin-like growth factor 1 receptor (Homo sapiens) (UniProt P08069); assay: Inhibition of Activated IGF-1R (unknown origin) at 1 uM in presence of ATP relative to control; values are per cent of control
# [6] = biological target: Protein-tyrosine kinase 2-beta (Homo sapiens) (UniProt Q14289); assay: Inhibition of FAK2 (unknown origin) at 1 uM in presence of ATP relative to control; values are per cent of control
# Protein-tyrosine kinase 2-beta (Homo sapiens), sequence (Q14289 whole entry, looked up): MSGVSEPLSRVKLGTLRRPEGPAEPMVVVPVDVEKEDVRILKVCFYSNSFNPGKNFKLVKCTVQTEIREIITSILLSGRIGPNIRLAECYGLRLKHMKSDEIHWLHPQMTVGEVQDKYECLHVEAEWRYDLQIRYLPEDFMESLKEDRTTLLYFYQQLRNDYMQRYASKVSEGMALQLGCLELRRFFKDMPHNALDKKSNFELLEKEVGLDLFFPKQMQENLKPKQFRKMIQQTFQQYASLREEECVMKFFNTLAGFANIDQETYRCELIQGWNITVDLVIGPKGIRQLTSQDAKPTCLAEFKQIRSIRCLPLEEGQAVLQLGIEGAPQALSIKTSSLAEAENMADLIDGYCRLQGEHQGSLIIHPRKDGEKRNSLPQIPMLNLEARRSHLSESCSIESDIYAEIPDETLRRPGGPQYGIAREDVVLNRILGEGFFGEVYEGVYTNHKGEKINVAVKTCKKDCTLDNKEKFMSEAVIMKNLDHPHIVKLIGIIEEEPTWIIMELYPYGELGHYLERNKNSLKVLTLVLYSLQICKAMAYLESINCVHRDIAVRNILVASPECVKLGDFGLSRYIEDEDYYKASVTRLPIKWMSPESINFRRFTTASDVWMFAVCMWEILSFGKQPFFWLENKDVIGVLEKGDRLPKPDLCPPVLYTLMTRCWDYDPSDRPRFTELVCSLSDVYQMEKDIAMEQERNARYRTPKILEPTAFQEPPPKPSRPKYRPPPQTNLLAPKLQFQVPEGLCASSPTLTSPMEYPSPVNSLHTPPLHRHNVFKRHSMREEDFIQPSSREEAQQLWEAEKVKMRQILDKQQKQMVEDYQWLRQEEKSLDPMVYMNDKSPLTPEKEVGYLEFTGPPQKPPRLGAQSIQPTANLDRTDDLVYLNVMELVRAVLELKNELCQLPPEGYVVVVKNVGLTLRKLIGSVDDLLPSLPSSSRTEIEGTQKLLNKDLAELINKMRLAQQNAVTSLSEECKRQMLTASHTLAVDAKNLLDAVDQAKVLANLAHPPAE
# [7] = biological target: Tyrosine-protein kinase Yes (Homo sapiens) (UniProt P07947); assay: Inhibition of Yes (unknown origin) at 1 uM in presence of ATP relative to control; values are per cent of control
# Tyrosine-protein kinase Yes (Homo sapiens), sequence (P07947 2-543 limits assumed): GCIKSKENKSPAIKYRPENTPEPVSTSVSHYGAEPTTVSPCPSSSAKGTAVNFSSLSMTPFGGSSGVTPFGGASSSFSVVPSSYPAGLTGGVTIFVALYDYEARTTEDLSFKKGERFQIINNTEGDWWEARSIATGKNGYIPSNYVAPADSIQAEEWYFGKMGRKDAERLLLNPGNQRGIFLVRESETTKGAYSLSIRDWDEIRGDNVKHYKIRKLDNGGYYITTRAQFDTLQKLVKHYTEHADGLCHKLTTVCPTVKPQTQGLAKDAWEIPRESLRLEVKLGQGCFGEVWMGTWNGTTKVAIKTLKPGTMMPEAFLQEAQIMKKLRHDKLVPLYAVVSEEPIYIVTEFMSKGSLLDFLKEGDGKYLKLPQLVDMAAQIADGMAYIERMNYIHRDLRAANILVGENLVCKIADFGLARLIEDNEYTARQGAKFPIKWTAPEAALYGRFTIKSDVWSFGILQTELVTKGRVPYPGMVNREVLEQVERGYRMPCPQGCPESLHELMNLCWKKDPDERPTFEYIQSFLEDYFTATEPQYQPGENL
# [8] = biological target: Serine/threonine-protein kinase Sgk1 (Homo sapiens) (UniProt O00141); assay: Inhibition of SGK1 (unknown origin) at 1 uM in presence of ATP relative to control; values are per cent of control
# [9] = biological target: Cyclin-dependent kinase 2/cyclin E1 (Homo sapiens) (UniProt P24864+P24941); assay: Inhibition of CDK2/cyclinE (unknown origin) at 1 uM in presence of ATP relative to control; values are per cent of control
# [10] = biological target: Vascular endothelial growth factor receptor 1 (Homo sapiens) (UniProt P17948); assay: Inhibition of FLt1 (unknown origin) at 1 uM in presence of ATP relative to control; values are per cent of control
# [11] = biological target: Serine/threonine-protein kinase DCLK2 (Homo sapiens) (UniProt Q8N568); assay: Inhibition of DCAMKL2 (unknown origin) at 1 uM in presence of ATP relative to control; values are per cent of control
# [12] = biological target: Serine/threonine-protein kinase PAK 2 (Homo sapiens) (UniProt Q13177); assay: Inhibition of PAK2 (unknown origin) at 1 uM in presence of ATP relative to control; values are per cent of control
# DBTRG-05MG = assay: Inhibition of cell proliferation in human DBTRG-05MG cells upto 10 umol/L incubated for 72 hrs by DAPI staining based analysis; type: functional; conditions: dose <= 10.0 µmol/L
# HMCB cell line = assay: Inhibition of cell proliferation in human HMCB cells upto 10 umol/L incubated for 72 hrs by DAPI staining based analysis; type: functional; conditions: dose <= 10.0 µmol/L
# [13] = biological target: Fibroblast growth factor receptor 4 (Homo sapiens) (UniProt P22455); assay: Inhibition of FGFR4 (unknown origin) at 1 uM in presence of ATP relative to control; values are per cent of control
# Fibroblast growth factor receptor 4 (Homo sapiens), sequence (P22455 22-802 limits assumed): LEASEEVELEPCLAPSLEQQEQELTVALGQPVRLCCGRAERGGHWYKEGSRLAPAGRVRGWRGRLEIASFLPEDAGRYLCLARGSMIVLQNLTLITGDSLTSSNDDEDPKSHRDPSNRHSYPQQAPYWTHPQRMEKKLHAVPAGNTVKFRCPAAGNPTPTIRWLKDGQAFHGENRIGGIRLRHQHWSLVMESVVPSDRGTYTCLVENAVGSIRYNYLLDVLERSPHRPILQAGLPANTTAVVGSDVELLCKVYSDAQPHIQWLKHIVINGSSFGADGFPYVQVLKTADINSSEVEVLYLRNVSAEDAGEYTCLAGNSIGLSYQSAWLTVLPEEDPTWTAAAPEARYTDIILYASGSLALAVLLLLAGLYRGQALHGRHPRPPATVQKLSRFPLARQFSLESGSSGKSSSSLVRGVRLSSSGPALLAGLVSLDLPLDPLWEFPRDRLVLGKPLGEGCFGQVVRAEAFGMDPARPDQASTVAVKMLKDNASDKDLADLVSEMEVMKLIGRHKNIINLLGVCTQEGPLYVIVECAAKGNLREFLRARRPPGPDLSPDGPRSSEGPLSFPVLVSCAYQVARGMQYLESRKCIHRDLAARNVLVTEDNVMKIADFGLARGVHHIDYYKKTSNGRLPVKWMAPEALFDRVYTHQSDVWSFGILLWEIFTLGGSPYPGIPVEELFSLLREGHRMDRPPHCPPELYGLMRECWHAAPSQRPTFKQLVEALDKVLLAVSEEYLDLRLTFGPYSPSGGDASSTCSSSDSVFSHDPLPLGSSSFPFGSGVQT
# [14] = biological target: MAP kinase-interacting serine/threonine-protein kinase 2 (Homo sapiens) (UniProt Q9HBH9); assay: Inhibition of MKNK2 (unknown origin) at 1 uM in presence of ATP relative to control; values are per cent of control
# [15] = Inhibition of N-terminal 6His-tagged TRKC G696A mutant (506 to 829 residues) (unknown origin) expressed in Escherichia coli incubated for 60 mins by [gamma-33P]-ATP based TopCount NXT liquid scintillation assay; design: species or system Homo sapiens
# SK-N-DZ = assay: Inhibition of cell proliferation in human SK-N-DZ cells upto 10 umol/L incubated for 72 hrs by DAPI staining based analysis; type: functional; conditions: dose <= 10.0 µmol/L
# [16] = biological target: Serine/threonine-protein kinase PLK2 (Homo sapiens) (UniProt Q9NYY3); assay: Inhibition of Plk2 (unknown origin) at 1 uM in presence of ATP relative to control; values are per cent of control
# SJRH30 = assay: Inhibition of cell proliferation in human SJRH30 cells upto 10 umol/L incubated for 72 hrs by DAPI staining based analysis; type: functional; conditions: dose <= 10.0 µmol/L
# [17] = Clearance in monkey at 1 mg/kg, iv administered as 20% hydroxypropyl-beta-cyclodextrin formulation by LC-MS analysis; type: ADME, organism-based, Macaca mulatta; conditions: rhesus monkey, in vivo
# [18] = biological target: Tyrosine-protein kinase ABL2 (Homo sapiens) (UniProt P42684); assay: Inhibition of Abl2 (unknown origin) at 1 uM in presence of ATP relative to control; values are per cent of control
# Tyrosine-protein kinase ABL2 (Homo sapiens), sequence (P42684 whole entry): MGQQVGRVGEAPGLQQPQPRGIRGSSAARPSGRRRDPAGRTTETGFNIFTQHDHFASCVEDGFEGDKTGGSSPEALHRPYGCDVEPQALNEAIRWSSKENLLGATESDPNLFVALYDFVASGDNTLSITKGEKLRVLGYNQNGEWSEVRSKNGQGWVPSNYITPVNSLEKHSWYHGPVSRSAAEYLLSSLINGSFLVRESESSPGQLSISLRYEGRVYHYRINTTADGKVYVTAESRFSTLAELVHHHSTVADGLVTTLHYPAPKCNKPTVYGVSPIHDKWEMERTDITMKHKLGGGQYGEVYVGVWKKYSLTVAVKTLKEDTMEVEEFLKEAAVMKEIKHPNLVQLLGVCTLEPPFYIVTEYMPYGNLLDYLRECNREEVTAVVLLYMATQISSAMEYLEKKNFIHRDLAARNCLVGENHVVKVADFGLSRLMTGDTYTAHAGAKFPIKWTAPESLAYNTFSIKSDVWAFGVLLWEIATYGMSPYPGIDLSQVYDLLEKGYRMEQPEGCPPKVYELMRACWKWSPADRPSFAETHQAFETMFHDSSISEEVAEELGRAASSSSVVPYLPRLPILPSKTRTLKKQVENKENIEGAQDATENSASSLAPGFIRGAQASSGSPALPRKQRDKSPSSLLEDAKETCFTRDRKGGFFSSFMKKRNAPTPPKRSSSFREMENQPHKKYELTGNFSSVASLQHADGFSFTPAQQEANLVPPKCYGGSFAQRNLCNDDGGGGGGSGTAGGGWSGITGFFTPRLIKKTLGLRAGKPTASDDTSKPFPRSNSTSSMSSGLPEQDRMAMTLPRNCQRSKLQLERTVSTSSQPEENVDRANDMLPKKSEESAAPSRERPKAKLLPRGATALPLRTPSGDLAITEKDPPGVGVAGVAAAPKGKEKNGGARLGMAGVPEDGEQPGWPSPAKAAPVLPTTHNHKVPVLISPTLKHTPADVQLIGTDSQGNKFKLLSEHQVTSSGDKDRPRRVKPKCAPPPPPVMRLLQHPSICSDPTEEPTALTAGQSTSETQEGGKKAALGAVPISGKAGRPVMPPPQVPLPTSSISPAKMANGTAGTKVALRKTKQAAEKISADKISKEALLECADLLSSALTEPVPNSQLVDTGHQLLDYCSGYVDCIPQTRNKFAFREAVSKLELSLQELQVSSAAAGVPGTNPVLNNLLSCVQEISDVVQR
# [19] = biological target: Insulin receptor (Homo sapiens) (UniProt P06213); assay: Inhibition of Activated IR (unknown origin) at 1 uM in presence of ATP relative to control; values are per cent of control
# [20] = biological target: BDNF/NT-3 growth factors receptor (Homo sapiens) (UniProt Q16620); assay: Inhibition of TrkB (unknown origin) at 1 uM in presence of ATP relative to control; values are per cent of control
# BDNF/NT-3 growth factors receptor (Homo sapiens), sequence (Q16620 32-822 limits assumed): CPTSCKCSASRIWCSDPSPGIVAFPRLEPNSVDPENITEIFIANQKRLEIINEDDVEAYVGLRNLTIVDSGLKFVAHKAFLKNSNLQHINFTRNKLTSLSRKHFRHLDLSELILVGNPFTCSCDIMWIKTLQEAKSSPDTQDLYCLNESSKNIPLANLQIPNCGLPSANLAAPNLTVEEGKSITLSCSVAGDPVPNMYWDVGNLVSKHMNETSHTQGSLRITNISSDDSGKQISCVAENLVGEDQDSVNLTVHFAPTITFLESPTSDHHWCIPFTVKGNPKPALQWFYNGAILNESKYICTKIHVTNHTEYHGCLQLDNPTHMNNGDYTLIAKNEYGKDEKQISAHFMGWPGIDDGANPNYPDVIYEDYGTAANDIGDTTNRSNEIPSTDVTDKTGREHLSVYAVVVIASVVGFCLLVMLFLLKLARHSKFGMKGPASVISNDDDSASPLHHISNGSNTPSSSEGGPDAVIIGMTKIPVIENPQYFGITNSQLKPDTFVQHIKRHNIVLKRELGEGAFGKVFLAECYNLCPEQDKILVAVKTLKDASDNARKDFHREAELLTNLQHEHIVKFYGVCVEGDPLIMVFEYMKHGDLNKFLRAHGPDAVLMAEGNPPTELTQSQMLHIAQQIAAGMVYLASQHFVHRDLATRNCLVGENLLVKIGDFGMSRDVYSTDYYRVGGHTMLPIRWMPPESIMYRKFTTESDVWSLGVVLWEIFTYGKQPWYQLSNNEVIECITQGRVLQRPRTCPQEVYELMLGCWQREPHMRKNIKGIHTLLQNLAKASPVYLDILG
# [21] = biological target: SRSF protein kinase 1 (Homo sapiens) (UniProt Q96SB4); assay: Inhibition of SRPK1 (unknown origin) at 1 uM in presence of ATP relative to control; values are per cent of control
# [22] = biological target: Serine/threonine-protein kinase BRSK1 (Homo sapiens) (UniProt Q8TDC3); assay: Inhibition of BrSK1 (unknown origin) at 1 uM in presence of ATP relative to control; values are per cent of control
smiles,measurement,setting,value
C[C@@H]1CCc2ncc(F)cc2[C@H]2CCCN2c2ccn3ncc(c3n2)C(=O)N1 [SELITRECTINIB],inhibition,Rec1,inactive
same,residual activity,Homo sapiens,117%
same,residual activity,[1],90.5%
same,residual activity,[2],108%
same,Activity,[3],< 5%
same,residual activity,[4],102%
same,residual activity,[5],84.5%
same,residual activity,[6],89%
same,residual activity,[7],82%
same,residual activity,[8],124%
same,residual activity,[9],106%
same,residual activity,[10],101%
same,residual activity,[11],140%
same,residual activity,[12],108%
same,inhibition,DBTRG-05MG,inactive
same,inhibition,HMCB cell line,inactive
same,residual activity,[13],128%
same,residual activity,[14],100%
same,IC50,[15],< 2.5 nM
same,inhibition,SK-N-DZ,inactive
same,residual activity,[16],95%
same,inhibition,SJRH30,inactive
same,clearance,[17],23.3 mL/min/kg
same,residual activity,[18],105%
same,residual activity,[19],97%
same,residual activity,[20],0%
same,residual activity,[21],104%
same,residual activity,[22],108%
